Consider 3 molecules from US9957267B2, “Somatostatin modulators and uses thereof” (Crinetics Pharmaceuticals, Inc., priority 2015, dated 2018).

The EC50 is the midpoint of the concentration-response curve.

Holding throughout (type): cell-based
Test [1] concerns the target T1, human somatostatin receptor subtype 2a (Homo sapiens, UniProt P30874).
T1 construct: expressed in transfected cells
The test is described as follows: cAMP assay for SSTR2a agonists (HTRF cAMP kit, NKH-477 stimulated). The following applies: CHO cells stably expressing human SSTR2a, 1.6 μM NKH-477.

In test [2] the target is T2, SSTR1 (Homo sapiens, UniProt P30872).
T2 construct: expressed in transfected cells
The test is described as follows: cAMP functional agonist assay, CHO cells expressing SSTR1. The conditions noted are these: CHO cells stably expressing SSTR1, cAMP; read-out: SSTR1 EC50. In short, it runs like this: (§1)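 CHO cells stably expressing the human or rodent somatostatin receptor subtype. Agonism measured as decrease in intracellular cAMP via Gi coupling.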

Test [3] deals with T3, SSTR5 (Homo sapiens, UniProt P35346).
T3 construct: expressed in transfected cells
Put plainly: cAMP functional agonist assay, CHO cells expressing SSTR5. The following applies: CHO cells stably expressing SSTR5, cAMP. A digest of the protocol: (§2)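 CHO cells stably expressing a single somatostatin receptor subtype, grown to 85–100% confluence in F12-Ham's with 10% donor calf serum and hygromycin. Agonism assessed as a decrease in intracellular cAMP via Gi coupling.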

Test [4] deals with SSTR3 (UniProt P32745). Put plainly: cAMP functional agonist assay, CHO cells expressing SSTR3. The conditions noted are these: CHO cells stably expressing SSTR3, cAMP. A digest of the protocol:
as §2

Test [5] deals with T4, SSTR4 (Homo sapiens, UniProt P31391).
T4 construct: expressed in transfected cells
Put plainly: cAMP functional agonist assay, CHO cells expressing SSTR4. The conditions noted are these: CHO cells stably expressing SSTR4, cAMP; read-out: SSTR4 EC50. In short, it runs like this: as §1

Sequence of SSTR3 (P32745 whole entry): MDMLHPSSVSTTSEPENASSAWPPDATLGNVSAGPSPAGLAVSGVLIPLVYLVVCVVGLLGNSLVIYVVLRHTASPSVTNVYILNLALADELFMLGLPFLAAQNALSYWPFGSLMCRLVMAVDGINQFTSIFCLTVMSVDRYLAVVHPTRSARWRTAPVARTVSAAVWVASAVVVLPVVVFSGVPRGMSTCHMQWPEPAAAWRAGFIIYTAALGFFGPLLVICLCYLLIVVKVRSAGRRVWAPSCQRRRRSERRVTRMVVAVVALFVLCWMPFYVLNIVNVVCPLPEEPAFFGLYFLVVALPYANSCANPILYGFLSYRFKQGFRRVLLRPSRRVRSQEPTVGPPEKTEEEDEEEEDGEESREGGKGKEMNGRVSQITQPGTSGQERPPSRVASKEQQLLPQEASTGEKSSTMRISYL
T2 sequence (P30872 whole entry): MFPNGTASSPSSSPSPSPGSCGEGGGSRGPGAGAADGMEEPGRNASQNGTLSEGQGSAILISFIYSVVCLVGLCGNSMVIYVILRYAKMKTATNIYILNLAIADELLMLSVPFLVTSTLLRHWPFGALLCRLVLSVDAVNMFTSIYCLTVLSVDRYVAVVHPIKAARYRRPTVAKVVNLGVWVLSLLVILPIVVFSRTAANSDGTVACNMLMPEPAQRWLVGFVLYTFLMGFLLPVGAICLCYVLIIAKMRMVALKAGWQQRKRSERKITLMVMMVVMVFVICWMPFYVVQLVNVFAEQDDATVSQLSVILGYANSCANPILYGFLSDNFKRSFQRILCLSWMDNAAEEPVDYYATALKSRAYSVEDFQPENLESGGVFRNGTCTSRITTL
T4 sequence (P31391 whole entry): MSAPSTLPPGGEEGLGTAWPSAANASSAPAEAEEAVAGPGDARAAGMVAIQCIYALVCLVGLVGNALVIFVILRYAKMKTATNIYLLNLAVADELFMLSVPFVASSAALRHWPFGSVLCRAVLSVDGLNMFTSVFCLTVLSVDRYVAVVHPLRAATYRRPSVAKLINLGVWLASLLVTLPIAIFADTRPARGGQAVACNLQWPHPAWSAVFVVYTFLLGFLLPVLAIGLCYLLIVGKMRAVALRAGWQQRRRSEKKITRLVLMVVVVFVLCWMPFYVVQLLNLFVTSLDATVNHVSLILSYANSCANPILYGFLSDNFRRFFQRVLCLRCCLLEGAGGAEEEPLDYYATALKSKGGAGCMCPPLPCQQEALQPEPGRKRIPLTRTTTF
T3 sequence (P35346 whole entry): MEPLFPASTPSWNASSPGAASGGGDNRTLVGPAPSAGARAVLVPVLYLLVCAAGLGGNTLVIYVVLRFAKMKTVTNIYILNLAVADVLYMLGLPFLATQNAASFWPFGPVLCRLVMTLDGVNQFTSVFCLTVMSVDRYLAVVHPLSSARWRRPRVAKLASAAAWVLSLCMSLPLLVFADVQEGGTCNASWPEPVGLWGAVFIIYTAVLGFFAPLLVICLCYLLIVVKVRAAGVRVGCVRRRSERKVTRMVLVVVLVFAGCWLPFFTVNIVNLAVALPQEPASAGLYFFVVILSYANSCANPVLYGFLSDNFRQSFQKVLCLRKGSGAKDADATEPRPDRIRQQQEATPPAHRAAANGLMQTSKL
T1 sequence (P30874 whole entry): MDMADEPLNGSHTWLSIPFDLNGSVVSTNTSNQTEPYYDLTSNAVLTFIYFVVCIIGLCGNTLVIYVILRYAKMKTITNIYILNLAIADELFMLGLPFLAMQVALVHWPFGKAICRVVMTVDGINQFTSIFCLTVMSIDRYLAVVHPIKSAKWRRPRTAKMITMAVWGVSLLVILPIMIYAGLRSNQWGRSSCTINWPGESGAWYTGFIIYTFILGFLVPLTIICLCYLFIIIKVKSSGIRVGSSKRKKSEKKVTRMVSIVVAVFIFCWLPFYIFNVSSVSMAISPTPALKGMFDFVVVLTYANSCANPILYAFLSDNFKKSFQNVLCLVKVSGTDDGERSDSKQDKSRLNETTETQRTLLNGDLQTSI

Turning to `Cc1cc(Cl)cc(-c2cnc3ncn(-c4cc(O)ccc4F)c(=O)c3c2CN(C)C[C@@H]2CCCN2)c1` [Compound A-54, 6-(3-chloro-5-methylphenyl)-3-(2-fluoro-5-hydroxyphenyl)-5-({methyl[(2S)-pyrrolidin-2-ylmethyl]amino}methyl)-3H,4H-pyrido[2,3-d]pyrimidin-4-one], the EC50 is < 100 nM in test [1]; 0.1 to 10 µM in test [2]; > 10 µM in test [3]; < 100 nM in test [4]; < 100 nM in test [5].

Take `Cc1cc(Cl)cc(-c2cnc3nc(C)n(-c4cc(O)cc(F)c4)c(=O)c3c2CN(C)C[C@@H]2CCCN2)c1` [Compound A-59, 6-(3-chloro-5-methylphenyl)-3-(3-fluoro-5-hydroxyphenyl)-2-methyl-5-({methyl[(2S)-pyrrolidin-2-ylmethyl]amino}methyl)-3H,4H-pyrido[2,3-d]pyrimidin-4-one]: the EC50 is < 100 nM in test [1]; > 10 µM in test [2]; 0.1 to 10 µM in test [3]; < 100 nM in test [4]; < 100 nM in test [5].

On to `Cc1cc(C)c(F)c(-c2cnc3ncn(-c4cccc(O)c4)c(=O)c3c2CN(C)CC2CCCCN2)c1` (stereo not drawn) [Compound A-70, 6-(2-Fluoro-3,5-dimethyl-phenyl)-3-(3-hydroxy-phenyl)-5-[(methyl-piperidin-2-ylmethyl-amino)-methyl]-3H-pyrido[2,3-d]pyrimidin-4-one], for which the EC50 in test [1] is < 100 nM; in test [2], 0.1 to 10 µM; in test [3], 0.1 to 10 µM; in test [4], < 100 nM; in test [5], < 100 nM.
